According to patent publication US20240092835A1, “NOVEL PEPTIDES CAPABLE OF ALTERING NK CELL ACTIVITY” (Massachusetts Institute of Technology, priority 2022, published 2024):
Where no end group is shown, it is not given here.

Tests used:
HLA-E = molecular target: T1, HLA-E (Homo sapiens, UniProt P13747); assay: HLA-E surface stabilization assay with RMA-S/HLA-E cells; type: cell-based; settings: 30 μM peptide, 16 hours; for HLA-E surface expression stability (GeoMFI): anti-HLA-E antibody
T1 construct: expressed in transfected cells; host or cells: RMA-S/HLA-E cells (antigen processing-defective lymphoma cell line)
Procedure: HLA-E surface expression was assessed by measuring geometric mean fluorescence intensity (GeoMFI) in RMA-S cells following immunofluorescence staining with an anti-HLA-E antibody (Table 14). Increased GeoMFI was indicative of increased HLA-E surface expression stability following novel peptide exposures (FIG. 3).

NKG2A+/NKG2C− NK cells = assay: NK cell activation markers in NKG2A+/NKG2C- NK cells incubated with peptide and K562 expressing HLA-E (inhibition); type: cell-based, human; settings: for percentage of CCL3+ NK cells / percentage of CD107a+ NK cells / percentage of IFNG+ NK cells / percentage of TNF+ NK cells: NKG2A+/NKG2C- NK cells, K562/HLA-E
Outline: (§1)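 Read-out: % NK cells positive for surface activation markers; a rise indicates activation, a fall indicates inhibition. Targets were K562 cells expressing HLA-E, loaded with human- or HCMV-proteome-derived peptides.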

CD94/NKG2C = CD94/NKG2C (Homo sapiens, UniProt P26717+Q13241); assay: Steady-state surface plasmon resonance of peptide-HLA-E complex with CD94/NKG2C; type: binding; settings: for Binding of peptide-HLA-E complexes to CD94/NKG2C normalized to a theoretical Rmax: steady-state SPR
Procedure: Binding affinity of novel peptides linked to HLA-E was determined using surface plasmon resonance (SPR), a methodology used to study protein-protein interactions (Tables 15-19). The peptide-HLA-E complex (generated as a single chain trimer) was immobilized on the sensor chip surface and CD94/NKG2A or CD94/NKG2C were flowed over. Steady-state surface plasmon resonance experiments were performed with a Biacore T200 instrument. CD94/NKG2x in HBS-EP+ buffer was injected as analyte in a concentration range of 0.1 μM to 102.4 μM and flow rate of 10 μL/min at 25° C. Data was fit with Prism 9.4 (GraphPad Software Inc; San Diego CA) to a “one site, specific binding” model. Series S CM5 chips were coupled to neutravidin and utilized. Biotinylated pMHC was immobilized at approximately 400 RU. KD values calculated by Biacore software are reported. Rmax, fit values were calculated by Biacore software. Rmax, theoretical values were calculated using the analyte/ligand mass ratio (0.66) multiplied by the amount of ligand coupled to the chip.

NKG2A−/NKG2C+ NK cells = assay: NK cell activation markers in NKG2A-/NKG2C+ NK cells incubated with peptide and K562 expressing HLA-E (activation); type: cell-based, human; settings: for percentage of CCL3+ NK cells / percentage of CD107+ NK cells / percentage of IFNG+ NK cells / percentage of TNF+ NK cells: NKG2A-/NKG2C+ NK cells, K562/HLA-E
Outline: as §1

[1] = K562 expressing HLA-E, CD107a, IFNG, TNF, CCL3

CD94/NKG2C, sequence (P26717 94-231 limits assumed): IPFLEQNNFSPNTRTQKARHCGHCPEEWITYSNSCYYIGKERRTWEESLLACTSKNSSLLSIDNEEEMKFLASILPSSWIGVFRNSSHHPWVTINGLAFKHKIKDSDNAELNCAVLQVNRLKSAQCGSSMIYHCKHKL
CD94/NKG2C, sequence (Q13241 32-179 limits assumed): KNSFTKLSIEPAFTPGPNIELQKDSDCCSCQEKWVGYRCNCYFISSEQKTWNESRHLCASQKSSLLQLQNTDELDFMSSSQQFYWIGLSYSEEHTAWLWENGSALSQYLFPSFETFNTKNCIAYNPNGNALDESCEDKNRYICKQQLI
T1 sequence (P13747 22-358): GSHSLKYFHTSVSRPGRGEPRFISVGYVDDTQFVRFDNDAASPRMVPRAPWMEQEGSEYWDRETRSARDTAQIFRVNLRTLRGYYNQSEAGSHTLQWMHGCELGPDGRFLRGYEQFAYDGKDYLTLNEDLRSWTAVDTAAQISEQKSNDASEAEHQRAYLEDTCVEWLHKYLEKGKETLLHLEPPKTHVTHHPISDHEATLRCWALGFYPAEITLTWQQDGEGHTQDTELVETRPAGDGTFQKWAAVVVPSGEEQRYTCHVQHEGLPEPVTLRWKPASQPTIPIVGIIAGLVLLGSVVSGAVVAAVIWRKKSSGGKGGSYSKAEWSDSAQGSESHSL
T1 sequence (P61769 21-119 partner): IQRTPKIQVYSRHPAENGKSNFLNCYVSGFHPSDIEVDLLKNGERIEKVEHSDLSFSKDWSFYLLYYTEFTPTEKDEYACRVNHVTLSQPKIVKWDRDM

TLPKRGLFL [human2, TLPKRGLFL]
HLA-E surface expression stabilization strength (in words) (HLA-E): moderate | HLA-E surface expression stability (GeoMFI) (HLA-E; Trial 1): 2019 GeoMFI | HLA-E surface expression stability (GeoMFI) (HLA-E; Trial 2): 2029 GeoMFI | HLA-E surface expression stability (GeoMFI) (HLA-E; Trial 3): 1731 GeoMFI | HLA-E surface expression stability (GeoMFI) (HLA-E; Trial 4): 2795 GeoMFI | HLA-E surface expression stabilization strength, approximate GeoMFI (HLA-E; approximate value): approximately 2×10^3 GeoMFI | effect on NKG2A+/NKG2C− NK cell inhibition (in words) (NKG2A+/NKG2C− NK cells; [1]): mild inhibitory effects | percentage of CCL3+ NK cells (NKG2A+/NKG2C− NK cells; Trial 1): 17.5% | percentage of CD107a+ NK cells (NKG2A+/NKG2C− NK cells; Trial 1): 10.8% | percentage of IFNG+ NK cells (NKG2A+/NKG2C− NK cells; Trial 1): 2.35% | percentage of TNF+ NK cells (NKG2A+/NKG2C− NK cells; Trial 1): 0.83% | percentage of CCL3+ NK cells (NKG2A+/NKG2C− NK cells; Trial 2): 34.9% | percentage of CD107a+ NK cells (NKG2A+/NKG2C− NK cells; Trial 2): 13% | percentage of IFNG+ NK cells (NKG2A+/NKG2C− NK cells; Trial 2): 2.85% | percentage of TNF+ NK cells (NKG2A+/NKG2C− NK cells; Trial 2): 1.25% | percentage of CCL3+ NK cells (NKG2A+/NKG2C− NK cells; Trial 3): 17.3% | percentage of CD107a+ NK cells (NKG2A+/NKG2C− NK cells; Trial 3): 16.7% | percentage of IFNG+ NK cells (NKG2A+/NKG2C− NK cells; Trial 3): 7.56% | percentage of TNF+ NK cells (NKG2A+/NKG2C− NK cells; Trial 3): 3.94% | percentage of CCL3+ NK cells (NKG2A+/NKG2C− NK cells; Trial 4): 13.3% | percentage of CD107a+ NK cells (NKG2A+/NKG2C− NK cells; Trial 4): 15.1% | percentage of IFNG+ NK cells (NKG2A+/NKG2C− NK cells; Trial 4): 2.41% | percentage of TNF+ NK cells (NKG2A+/NKG2C− NK cells; Trial 4): 1.74% | percentage of CCL3+ NK cells (NKG2A+/NKG2C− NK cells; Trial 5): 29.3% | percentage of CD107a+ NK cells (NKG2A+/NKG2C− NK cells; Trial 5): 14.4% | percentage of IFNG+ NK cells (NKG2A+/NKG2C− NK cells; Trial 5): 5.78% | percentage of TNF+ NK cells (NKG2A+/NKG2C− NK cells; Trial 5): 2.47% | percentage of CCL3+ NK cells (NKG2A+/NKG2C− NK cells; Trial 6): 16.2% | percentage of CD107a+ NK cells (NKG2A+/NKG2C− NK cells; Trial 6): 14% | percentage of IFNG+ NK cells (NKG2A+/NKG2C− NK cells; Trial 6): 3.48% | percentage of TNF+ NK cells (NKG2A+/NKG2C− NK cells; Trial 6): 2.18% | binding of peptide-HLA-E complex to CD94/NKG2C normalized to a fitted Rmax (CD94/NKG2C; CD94/NKG2C concentration 0 μM): −0.005 | binding of peptide-HLA-E complex to CD94/NKG2C normalized to a fitted Rmax (CD94/NKG2C; CD94/NKG2C concentration 0.1 μM): 0.003 | binding of peptide-HLA-E complex to CD94/NKG2C normalized to a fitted Rmax (CD94/NKG2C; CD94/NKG2C concentration 0.2 μM): 0.009 | binding of peptide-HLA-E complex to CD94/NKG2C normalized to a fitted Rmax (CD94/NKG2C; CD94/NKG2C concentration 0.4 μM): 0.023 | binding of peptide-HLA-E complex to CD94/NKG2C normalized to a fitted Rmax (CD94/NKG2C; CD94/NKG2C concentration 0.8 μM): 0.046 | binding of peptide-HLA-E complex to CD94/NKG2C normalized to a fitted Rmax (CD94/NKG2C; CD94/NKG2C concentration 1.6 μM): 0.089 | binding of peptide-HLA-E complex to CD94/NKG2C normalized to a fitted Rmax (CD94/NKG2C; CD94/NKG2C concentration 3.2 μM): 0.168 | binding of peptide-HLA-E complex to CD94/NKG2C normalized to a fitted Rmax (CD94/NKG2C; CD94/NKG2C concentration 6.4 μM): 0.281 | binding of peptide-HLA-E complex to CD94/NKG2C normalized to a fitted Rmax (CD94/NKG2C; CD94/NKG2C concentration 12.8 μM): 0.443 | binding of peptide-HLA-E complex to CD94/NKG2C normalized to a fitted Rmax (CD94/NKG2C; CD94/NKG2C concentration 25.6 μM): 0.621 | binding of peptide-HLA-E complex to CD94/NKG2C normalized to a fitted Rmax (CD94/NKG2C; CD94/NKG2C concentration 51.2 μM): 0.755 | binding of peptide-HLA-E complex to CD94/NKG2C normalized to a fitted Rmax (CD94/NKG2C; CD94/NKG2C concentration 102.4 μM): 0.867 | Binding of peptide-HLA-E complexes to CD94/NKG2C normalized to a theoretical Rmax (CD94/NKG2C; CD94/NKG2C analyte concentration 0 μM): −0.003 | Binding of peptide-HLA-E complexes to CD94/NKG2C normalized to a theoretical Rmax (CD94/NKG2C; CD94/NKG2C analyte concentration 0.1 μM): 0.002 | Binding of peptide-HLA-E complexes to CD94/NKG2C normalized to a theoretical Rmax (CD94/NKG2C; CD94/NKG2C analyte concentration 0.2 μM): 0.007 | Binding of peptide-HLA-E complexes to CD94/NKG2C normalized to a theoretical Rmax (CD94/NKG2C; CD94/NKG2C analyte concentration 0.4 μM): 0.017 | Binding of peptide-HLA-E complexes to CD94/NKG2C normalized to a theoretical Rmax (CD94/NKG2C; CD94/NKG2C analyte concentration 0.8 μM): 0.034 | Binding of peptide-HLA-E complexes to CD94/NKG2C normalized to a theoretical Rmax (CD94/NKG2C; CD94/NKG2C analyte concentration 1.6 μM): 0.066 | Binding of peptide-HLA-E complexes to CD94/NKG2C normalized to a theoretical Rmax (CD94/NKG2C; CD94/NKG2C analyte concentration 3.2 μM): 0.124 | Binding of peptide-HLA-E complexes to CD94/NKG2C normalized to a theoretical Rmax (CD94/NKG2C; CD94/NKG2C analyte concentration 6.4 μM): 0.207 | Binding of peptide-HLA-E complexes to CD94/NKG2C normalized to a theoretical Rmax (CD94/NKG2C; CD94/NKG2C analyte concentration 12.8 μM): 0.326 | Binding of peptide-HLA-E complexes to CD94/NKG2C normalized to a theoretical Rmax (CD94/NKG2C; CD94/NKG2C analyte concentration 25.6 μM): 0.457 | Binding of peptide-HLA-E complexes to CD94/NKG2C normalized to a theoretical Rmax (CD94/NKG2C; CD94/NKG2C analyte concentration 51.2 μM): 0.555 | Binding of peptide-HLA-E complexes to CD94/NKG2C normalized to a theoretical Rmax (CD94/NKG2C; CD94/NKG2C analyte concentration 102.4 μM): 0.638 | effect on NKG2A−/NKG2C+ NK cell activation (in words) (NKG2A−/NKG2C+ NK cells; [1]): strong activating effects | percentage of CCL3+ NK cells (NKG2A−/NKG2C+ NK cells; Trial 1): 80.9% | percentage of CD107+ NK cells (NKG2A−/NKG2C+ NK cells; Trial 1): 80% | percentage of IFNG+ NK cells (NKG2A−/NKG2C+ NK cells; Trial 1): 69.5% | percentage of TNF+ NK cells (NKG2A−/NKG2C+ NK cells; Trial 1): 57.3% | percentage of CCL3+ NK cells (NKG2A−/NKG2C+ NK cells; Trial 2): 92.4% | percentage of CD107+ NK cells (NKG2A−/NKG2C+ NK cells; Trial 2): 87.3% | percentage of IFNG+ NK cells (NKG2A−/NKG2C+ NK cells; Trial 2): 82.3% | percentage of TNF+ NK cells (NKG2A−/NKG2C+ NK cells; Trial 2): 72.6% | percentage of CCL3+ NK cells (NKG2A−/NKG2C+ NK cells; Trial 3): 86.1% | percentage of CD107+ NK cells (NKG2A−/NKG2C+ NK cells; Trial 3): 88.3% | percentage of IFNG+ NK cells (NKG2A−/NKG2C+ NK cells; Trial 3): 83% | percentage of TNF+ NK cells (NKG2A−/NKG2C+ NK cells; Trial 3): 73.8% | percentage of CCL3+ NK cells (NKG2A−/NKG2C+ NK cells; Trial 4): 71.8% | percentage of CD107+ NK cells (NKG2A−/NKG2C+ NK cells; Trial 4): 71.7% | percentage of IFNG+ NK cells (NKG2A−/NKG2C+ NK cells; Trial 4): 64.5% | percentage of TNF+ NK cells (NKG2A−/NKG2C+ NK cells; Trial 4): 56.2% | percentage of CCL3+ NK cells (NKG2A−/NKG2C+ NK cells; Trial 5): 75.8% | percentage of CD107+ NK cells (NKG2A−/NKG2C+ NK cells; Trial 5): 69.9% | percentage of IFNG+ NK cells (NKG2A−/NKG2C+ NK cells; Trial 5): 63.2% | percentage of TNF+ NK cells (NKG2A−/NKG2C+ NK cells; Trial 5): 57.8% | percentage of CCL3+ NK cells (NKG2A−/NKG2C+ NK cells; Trial 6): 62.1% | percentage of CD107+ NK cells (NKG2A−/NKG2C+ NK cells; Trial 6): 59.3% | percentage of IFNG+ NK cells (NKG2A−/NKG2C+ NK cells; Trial 6): 50.7% | percentage of TNF+ NK cells (NKG2A−/NKG2C+ NK cells; Trial 6): 41.1%
